Reference: article PMC5773572, “High-throughput analysis using non-depletive SPME: challenges and applications to the determination of free and total concentrations in small sample volumes” (Scientific Reports, 2018)

Legend:
5% calf serum in PBS [1] = assay: Protein binding by rapid equilibrium dialysis (RED) in 5% calf serum; format: in vitro ADME; conditions: 8K MWCO
Description: Equipments. […] Impact™ protein precipitation plates were purchased from Phenomenex (Torrance, CA, USA). Sample preparation for RED. […] RED protocol. […] Aliquots (400µL) of the spiked treatment medium solutions were added to the donor wells followed by the addition of600µL of blank medium to the acceptor cells. […] The experiment was performed in triplicate for all compounds and concentrations.

plasma proteins = conditions: value reported in the literature, used to calculate the expected free amount; cited from earlier work
5% calf serum in PBS [2] = assay: Protein binding by high-throughput SPME fiber method in 5% calf serum in PBS
Description: The SPME experimental workflow consisted of five major steps. First, prior to extraction, fibers were conditioned in 100 µL of desorption solution ACN/H2O (80/20, v/v), which was acidified to contain 0.1% (v/v) formic acid. The second step, occurring prior to extraction, involved submersing the fiber in 100 µL of ultrapure water to remove traces of solvent from the extraction phase. This step was performed for 10 seconds using 100 rpm agitation, with water temperature set to 37 °C in order to avoid a temperature gradient between the fiber and the sample, as this could influence the initial uptake of analytes. […] This step was critical, as it ensured that there were no traces of binding components remaining on the coating that could interfere with the quantitation of analytes extracted by the SPME fiber. […]
(§1) The reliability of the new fiber-based SPME high-throughput method was tested by applying it to the determination of the protein binding (PB) percentages of the selected analytes. […] The protein binding of each compound was calculated using the slope ratios of the linear portions of the calibration curves. […]
The developed SPME method was further evaluated using a matrix consisted of 5% CS in PBS to mimic conditions typically used in in vitro cell assay applications. […]

calf serum (CS) = assay: Protein binding by ultra-thin coated HLB fiber SPME, slope ratio of calibrations in PBS vs 100% calf serum; conditions: 100% calf serum vs PBS pH 7.4; fiber SPME, 5 min extraction, 37 °C, 100 µL sample
Description: (§2) The SPME experimental workflow consisted of five major steps. First, prior to extraction, fibers were conditioned in 100 µL of desorption solution ACN/H2O (80/20, v/v), which was acidified to contain 0.1% (v/v) formic acid. The second step, occurring prior to extraction, involved submersing the fiber in 100 µL of ultrapure water to remove traces of solvent from the extraction phase. This step was performed for 10 seconds using 100 rpm agitation, with water temperature set to 37 °C in order to avoid a temperature gradient between the fiber and the sample, as this could influence the initial uptake of analytes. Following, extraction was performed on 100 µL of sample for 5 min, with samples thermostated to 37 °C, using 100 rpm agitation, prior to extraction. The fourth step consisted of a second rinsing of the fiber with 100 µL of water for 10 seconds to remove matrix components from the fiber. This step was critical, as it ensured that there were no traces of binding components remaining on the coating that could interfere with the quantitation of analytes extracted by the SPME fiber. […]
as §1

[3] = as above; conditions: bovine (calf), 100% calf serum, pH 7.4
Description: as §2, §1

Row | fraction unbound at 5 min [3] | Structure (SMILES) | binding values in 5% CS (RED) (5% calf serum in PBS [1]) [%] | Protein binding (plasma proteins) [%] | PB values in 5% CS (SPME) (5% calf serum in PBS [2]) [%] | protein binding (PB) (calf serum (CS)) [%]
1 |  | CN1CCCC1c1cccnc1 (racemic) [Nicotine, (±) nicotine] | < 10 | <10 | 8 | 
2 |  | CCN(CC)C(=O)c1cccc(C)c1 [DEET, N,N-Diethyl-meta-toluamide] | < 10 |  | 38 | 71
3 | 0.02 | O=C(O)Cc1ccccc1Nc1c(Cl)cccc1Cl [Diclofenac, diclofenac] | 91 |  |  | 
